According to publication PMC10999558, “Analyzing resistome in soil and Human gut: a study on the characterization and risk evaluation of antimicrobial peptide resistance” (Frontiers in Microbiology, 2024):

How the values were obtained:
Format in all cases: cell-based, Escherichia coli
Details in all cases: MHB, 37°C, 24 h, triplicate
[1] = tested on: E. coli JM109; test: MIC, broth microdilution, retransformed E. coli JM109
Procedure: (§1) Escherichia coli DH5α, E. coli BL21(DE3), and E. coli JM109 were utilized in this study.
(§2) The MICs were determined using the broth microdilution method in 96-well microtiter plates ([Wiegand et al., 2008]). In brief, a 1:100 dilution of the mid-exponential phase bacterial culture (OD600 = 0.5), consisting of 5 μL (1 × 10^5 CFU/mL), was introduced into polypropylene 96-well plates. These plates contained a two-fold dilution series of AMP in a total volume of 100 μL MHB per well. The incubation of the plates occurred at 37°C in a humidity chamber. The MIC was identified as the lowest concentration that hindered visible bacterial growth after 24 h of incubation. Each experiment was conducted in triplicate.
(§3) Before washing down the colonies, we randomly selected two clones from each plate containing distinct AMP. Colony PCRs were conducted using M13 primer pairs to validate the presence of inserts and determine their sizes. The selected colonies were then subjected to sequencing. The specific details are provided in Supplementary Table S2. Following that, plasmids were isolated using the Plasmid Midiprep Kit (Zomanbio, ZP103) following the manufacturer’s guidelines. After the plasmids were successfully reintroduced into E. coli JM109 and E. coli BL 21(DE3), the MICs of the transformed strains against the AMP used for selection were tested. This testing process was carried out in triplicate.
(§4) Following validation, the colonies displaying resistance underwent additional testing via MIC assessments for the remaining four AMPs that were not employed during the selection process. This experimental procedure was carried out in triplicate.

[2] = tested on: E. coli BL21(DE3); test: MIC, broth microdilution, retransformed E. coli BL21(DE3)
Procedure: as §1, §2, §3, §4

[3] = tested on: E. coli DH5α; test: MIC, broth microdilution, E. coli DH5α carrying pUC118 or resistance-conferring plasmids
Procedure: as §1, §2, §4

**Q.** For Colistin [CST], which MIC ([1]; colony pUC118-FCST1-JM109 (feces insert 1 selected against colistin)) is on record?
**A.** The MIC was 0.5 µg/mL.

**Q.** What about the MIC ([1]; colony pUC118-FCST2-JM109 (feces insert 2 selected against colistin)) of the same substance?
**A.** Its MIC is 1 µg/mL.

**Q.** And the MIC ([1]; colony pUC118-FGQ1-JM109 (feces insert 1 selected against melittin))?
**A.** The MIC was 0.5 µg/mL.

**Q.** What about the MIC ([1]; colony pUC118-FGQ2-JM109 (feces insert 2 selected against melittin)) of the same substance?
**A.** Its MIC is 0.5 µg/mL.

**Q.** What about the MIC ([1]; colony pUC118-FIB1-JM109 (feces insert 1 selected against iseganan)) of the same substance?
**A.** The MIC was 0.25 µg/mL.

**Q.** And the MIC ([1]; colony pUC118-FIB2-JM109 (feces insert 2 selected against iseganan))?
**A.** The MIC was 0.5 µg/mL.

**Q.** And the MIC ([1]; colony pUC118-FPB1-JM109 (feces insert 1 selected against polymyxin B))?
**A.** Its MIC is 1 µg/mL.

**Q.** And the MIC ([1]; colony pUC118-FPB2-JM109 (feces insert 2 selected against polymyxin B))?
**A.** The MIC was 0.5 µg/mL.

**Q.** What about the MIC ([1]; colony pUC118-FSA1-JM109 (feces insert 1 selected against cathelicidin-DM)) of the same substance?
**A.** The MIC was 2 µg/mL.

**Q.** And the MIC ([1]; colony pUC118-FSA2-JM109 (feces insert 2 selected against cathelicidin-DM))?
**A.** Its MIC is 0.5 µg/mL.

**Q.** What about the MIC ([1]; colony pUC118-JM109 (control, no insert)) of the same substance?
**A.** The MIC was 0.25 µg/mL.

**Q.** What about the MIC ([1]; colony pUC118-SCST1-JM109 (soil insert 1 selected against colistin)) of the same substance?
**A.** The MIC was 0.5 µg/mL.

**Q.** What about the MIC ([1]; colony pUC118-SCST2-JM109 (soil insert 2 selected against colistin)) of the same substance?
**A.** The MIC was 0.5 µg/mL.

**Q.** And the MIC ([1]; colony pUC118-SGQ1-JM109 (soil insert 1 selected against melittin))?
**A.** Its MIC is 0.25 µg/mL.

**Q.** What about the MIC ([1]; colony pUC118-SGQ2-JM109 (soil insert 2 selected against melittin)) of the same substance?
**A.** Its MIC is 0.25 µg/mL.

**Q.** What about the MIC ([1]; colony pUC118-SIB1-JM109 (soil insert 1 selected against iseganan)) of the same substance?
**A.** The MIC was 0.25 µg/mL.

**Q.** What about the MIC ([1]; colony pUC118-SIB2-JM109 (soil insert 2 selected against iseganan)) of the same substance?
**A.** Its MIC is 0.25 µg/mL.

**Q.** And the MIC ([1]; colony pUC118-SPB1-JM109 (soil insert 1 selected against polymyxin B))?
**A.** Its MIC is 0.25 µg/mL.

**Q.** And the MIC ([1]; colony pUC118-SPB2-JM109 (soil insert 2 selected against polymyxin B))?
**A.** The MIC was 0.5 µg/mL.

**Q.** What about the MIC ([1]; colony pUC118-SSA1-JM109 (soil insert 1 selected against cathelicidin-DM)) of the same substance?
**A.** Its MIC is 0.5 µg/mL.

**Q.** What about the MIC ([1]; colony pUC118-SSA2-JM109 (soil insert 2 selected against cathelicidin-DM)) of the same substance?
**A.** The MIC was 0.25 µg/mL.

**Q.** What about the MIC ([2]; colony pUC118-BL21(DE3) (control, no insert)) of the same substance?
**A.** The MIC was 1 µg/mL.

**Q.** And the MIC ([2]; colony pUC118-FCST1-BL21(DE3) (feces insert 1 selected against colistin))?
**A.** Its MIC is 2 µg/mL.

**Q.** And the MIC ([2]; colony pUC118-FCST2-BL21(DE3) (feces insert 2 selected against colistin))?
**A.** Its MIC is 2 µg/mL.

**Q.** And the MIC ([2]; colony pUC118-FGQ1-BL21(DE3) (feces insert 1 selected against melittin))?
**A.** The MIC was 2 µg/mL.

**Q.** What about the MIC ([2]; colony pUC118-FGQ2- BL21(DE3) (feces insert 2 selected against melittin)) of the same substance?
**A.** The MIC was 2 µg/mL.

**Q.** What about the MIC ([2]; colony pUC118-FIB1-BL21(DE3) (feces insert 1 selected against iseganan)) of the same substance?
**A.** Its MIC is 1 µg/mL.

**Q.** What about the MIC ([2]; colony pUC118-FIB2-BL21(DE3) (feces insert 2 selected against iseganan)) of the same substance?
**A.** Its MIC is 2 µg/mL.

**Q.** What about the MIC ([2]; colony pUC118-FPB1-BL21(DE3) (feces insert 1 selected against polymyxin B)) of the same substance?
**A.** The MIC was 4 µg/mL.

**Q.** What about the MIC ([2]; colony pUC118-FPB2-BL21(DE3) (feces insert 2 selected against polymyxin B)) of the same substance?
**A.** The MIC was 2 µg/mL.

**Q.** What about the MIC ([2]; colony pUC118-FSA1-BL21(DE3) (feces insert 1 selected against cathelicidin-DM)) of the same substance?
**A.** The MIC was 2 µg/mL.

**Q.** What about the MIC ([2]; colony pUC118-FSA2-BL21(DE3) (feces insert 2 selected against cathelicidin-DM)) of the same substance?
**A.** The MIC was 2 µg/mL.

**Q.** What about the MIC ([2]; colony pUC118-SCST1-BL21(DE3) (soil insert 1 selected against colistin)) of the same substance?
**A.** The MIC was 2 µg/mL.

**Q.** And the MIC ([2]; colony pUC118-SCST2-BL21(DE3) (soil insert 2 selected against colistin))?
**A.** The MIC was 2 µg/mL.

**Q.** What about the MIC ([2]; colony pUC118-SGQ1-BL21(DE3) (soil insert 1 selected against melittin)) of the same substance?
**A.** The MIC was 1 µg/mL.

**Q.** What about the MIC ([2]; colony pUC118-SGQ2-BL21(DE3) (soil insert 2 selected against melittin)) of the same substance?
**A.** Its MIC is 1 µg/mL.

**Q.** And the MIC ([2]; colony pUC118-SIB1-BL21(DE3) (soil insert 1 selected against iseganan))?
**A.** Its MIC is 1 µg/mL.

**Q.** What about the MIC ([2]; colony pUC118-SIB2-BL21(DE3) (soil insert 2 selected against iseganan)) of the same substance?
**A.** Its MIC is 1 µg/mL.

**Q.** And the MIC ([2]; colony pUC118-SPB1-BL21(DE3) (soil insert 1 selected against polymyxin B))?
**A.** The MIC was 1 µg/mL.

**Q.** And the MIC ([2]; colony pUC118-SPB2-BL21(DE3) (soil insert 2 selected against polymyxin B))?
**A.** The MIC was 2 µg/mL.

**Q.** What about the MIC ([2]; colony pUC118-SSA1-BL21(DE3) (soil insert 1 selected against cathelicidin-DM)) of the same substance?
**A.** Its MIC is 2 µg/mL.

**Q.** What about the MIC ([2]; colony pUC118-SSA2-BL21(DE3) (soil insert 2 selected against cathelicidin-DM)) of the same substance?
**A.** The MIC was 2 µg/mL.

**Q.** What about the MIC ([3]; E. coli DH5α containing pUC118 plasmids) of the same substance?
**A.** Its MIC is 0.25 µg/mL.

**Q.** And the MIC ([3]; colony pUC118-DH5α (control, no insert))?
**A.** Its MIC is 0.25 µg/mL.

**Q.** And the MIC ([3]; colony pUC118-FCST1-DH5α (feces insert 1 selected against colistin))?
**A.** The MIC was 0.5 µg/mL.

**Q.** And the MIC ([3]; colony pUC118-FCST2-DH5α (feces insert 2 selected against colistin))?
**A.** Its MIC is 0.5 µg/mL.

**Q.** And the MIC ([3]; colony pUC118-FGQ1-DH5α (feces insert 1 selected against melittin))?
**A.** The MIC was 0.5 µg/mL.

**Q.** And the MIC ([3]; colony pUC118-FGQ2-DH5α (feces insert 2 selected against melittin))?
**A.** Its MIC is 0.5 µg/mL.

**Q.** What about the MIC ([3]; colony pUC118-FIB1-DH5α (feces insert 1 selected against iseganan)) of the same substance?
**A.** The MIC was 0.25 µg/mL.

**Q.** And the MIC ([3]; colony pUC118-FIB2-DH5α (feces insert 2 selected against iseganan))?
**A.** Its MIC is 1 µg/mL.

**Q.** What about the MIC ([3]; colony pUC118-FPB1-DH5α (feces insert 1 selected against polymyxin B)) of the same substance?
**A.** Its MIC is 2 µg/mL.

**Q.** What about the MIC ([3]; colony pUC118-FPB2-DH5α (feces insert 2 selected against polymyxin B)) of the same substance?
**A.** The MIC was 1 µg/mL.

**Q.** And the MIC ([3]; colony pUC118-FSA1-DH5α (feces insert 1 selected against cathelicidin-DM))?
**A.** The MIC was 0.5 µg/mL.

**Q.** And the MIC ([3]; colony pUC118-FSA2-DH5α (feces insert 2 selected against cathelicidin-DM))?
**A.** The MIC was 0.5 µg/mL.

**Q.** What about the MIC ([3]; colony pUC118-SCST1-DH5α (soil insert 1 selected against colistin)) of the same substance?
**A.** The MIC was 0.5 µg/mL.

**Q.** And the MIC ([3]; colony pUC118-SCST2-DH5α (soil insert 2 selected against colistin))?
**A.** Its MIC is 1 µg/mL.

**Q.** What about the MIC ([3]; colony pUC118-SGQ1-DH5α (soil insert 1 selected against melittin)) of the same substance?
**A.** The MIC was 0.25 µg/mL.

**Q.** And the MIC ([3]; colony pUC118-SGQ2-DH5α (soil insert 2 selected against melittin))?
**A.** The MIC was 0.25 µg/mL.

**Q.** And the MIC ([3]; colony pUC118-SIB1-DH5α (soil insert 1 selected against iseganan))?
**A.** Its MIC is 0.25 µg/mL.

**Q.** What about the MIC ([3]; colony pUC118-SIB2-DH5α (soil insert 2 selected against iseganan)) of the same substance?
**A.** Its MIC is 0.25 µg/mL.

**Q.** What about the MIC ([3]; colony pUC118-SPB1-DH5α (soil insert 1 selected against polymyxin B)) of the same substance?
**A.** The MIC was 0.25 µg/mL.

**Q.** What about the MIC ([3]; colony pUC118-SPB2-DH5α (soil insert 2 selected against polymyxin B)) of the same substance?
**A.** The MIC was 0.5 µg/mL.

**Q.** And the MIC ([3]; colony pUC118-SSA1-DH5α (soil insert 1 selected against cathelicidin-DM))?
**A.** Its MIC is 0.5 µg/mL.

**Q.** And the MIC ([3]; colony pUC118-SSA2-DH5α (soil insert 2 selected against cathelicidin-DM))?
**A.** Its MIC is 1 µg/mL.
